Results taken from ChEMBL document CHEMBL3046358, “Multiple Pro-197 substitutions in the acetolactate synthase of rigid ryegrass (Lolium rigidum) and their impact on chlorsulfuron activity and plant growth” (Crop Prot, 2012).

Key:
Lolium rigidum [1] = assay: Herbicidal activity against Lolium rigidum accession A15 assessed as emergence rate applied at 4 times pre-emergence recommended rate relative to untreated control; type: functional
Lolium rigidum [2] = assay: Herbicidal activity against Lolium rigidum accession A06 assessed as emergence rate applied at 4 times pre-emergence recommended rate relative to untreated control; type: functional
Lolium rigidum [3] = assay: Herbicidal activity against Lolium rigidum accession A04 assessed as emergence rate applied at 4 times pre-emergence recommended rate relative to untreated control; type: functional
[4] = target: T1, Acetolactate synthase (Lolium rigidum) (UniProt A7XBP7); assay: Resistance index, ratio of I50 for acetolactate synthase Pro-197/Arg-197 or Pro-197/Ser-197 or Pro/Val or Ala/Leu mutant in Lolium rigidum accession A17 leaves extracts to I50 for acetolactate synthase in Lolium rigidum accession A01 leaves extracts
T1 sequence (whole entry): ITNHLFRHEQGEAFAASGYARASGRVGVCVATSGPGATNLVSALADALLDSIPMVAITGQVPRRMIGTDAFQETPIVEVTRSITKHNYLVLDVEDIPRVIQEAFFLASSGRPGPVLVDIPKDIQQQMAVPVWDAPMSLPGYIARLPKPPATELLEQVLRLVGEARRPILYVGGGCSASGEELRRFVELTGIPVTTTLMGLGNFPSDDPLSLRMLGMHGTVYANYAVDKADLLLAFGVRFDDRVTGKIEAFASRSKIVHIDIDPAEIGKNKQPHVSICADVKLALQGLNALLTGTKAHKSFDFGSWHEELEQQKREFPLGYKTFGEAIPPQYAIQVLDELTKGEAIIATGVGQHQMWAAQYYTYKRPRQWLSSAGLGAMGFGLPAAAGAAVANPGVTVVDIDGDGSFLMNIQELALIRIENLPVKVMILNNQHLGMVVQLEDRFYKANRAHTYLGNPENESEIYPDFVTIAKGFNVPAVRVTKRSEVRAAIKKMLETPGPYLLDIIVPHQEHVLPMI

[5] = target: T1, Acetolactate synthase (Lolium rigidum); assay: Resistance index, ratio of I50 for acetolactate synthase Ala-197/Ala-197 mutant in Lolium rigidum accession A06 leaves extracts to I50 for acetolactate synthase in Lolium rigidum accession A01 leaves extracts
[6] = target: T1, Acetolactate synthase (Lolium rigidum); assay: Resistance index, ratio of I50 for acetolactate synthase Pro-197/Leu-197 mutant in Lolium rigidum accession A07 leaves extracts to I50 for acetolactate synthase in Lolium rigidum accession A01 leaves extracts
Acetolactate synthase [7] = target: T2, Acetolactate synthase (Lolium rigidum, UniProt A7XBP7); assay: Inhibition of acetolactate synthase Leu-197/Leu-197 mutant in Lolium rigidum accession A18 leaves extracts by acetolactate production assay; conditions: read-out: I50
Acetolactate synthase [8] = target: T2, Acetolactate synthase; assay: Inhibition of acetolactate synthase Ala-197/Ala-197 mutant in Lolium rigidum accession A16 leaves extracts by acetolactate production assay; conditions: read-out: I50
Lolium rigidum [9] = assay: Herbicidal activity against Lolium rigidum accession A06 assessed as emergence rate applied at 1 times pre-emergence recommended rate applied in pots where terbufos had been incorporated into the soil relative to untreated control; type: functional
Lolium rigidum [10] = assay: Herbicidal activity against Lolium rigidum accession A03 assessed as emergence rate applied at 1 times pre-emergence recommended rate applied in pots where terbufos had been incorporated into the soil relative to untreated control; type: functional
Lolium rigidum [11] = assay: Herbicidal activity against Lolium rigidum accession A15 assessed as emergence rate applied at 1 times pre-emergence recommended rate relative to untreated control; type: functional
Lolium rigidum [12] = assay: Herbicidal activity against Lolium rigidum accession A12 assessed as emergence rate applied at 1 times pre-emergence recommended rate relative to untreated control; type: functional
Lolium rigidum [13] = assay: Herbicidal activity against Lolium rigidum accession A09 assessed as emergence rate applied at 1 times pre-emergence recommended rate relative to untreated control; type: functional
Lolium rigidum [14] = assay: Herbicidal activity against Lolium rigidum accession A07 assessed as emergence rate applied at 1 times pre-emergence recommended rate relative to untreated control; type: functional
Acetolactate synthase [15] = target: T2, Acetolactate synthase; assay: Inhibition of acetolactate synthase Ala-197/Ala-197 mutant in Lolium rigidum accession A05 leaves extracts by acetolactate production assay; conditions: read-out: I50
Lolium rigidum [16] = assay: Herbicidal activity against Lolium rigidum accession A10 assessed as emergence rate applied at 1 times pre-emergence recommended rate applied in pots where terbufos had been incorporated into the soil relative to untreated control; type: functional
Lolium rigidum [17] = assay: Herbicidal activity against Lolium rigidum accession A09 assessed as emergence rate applied at 1 times pre-emergence recommended rate applied in pots where terbufos had been incorporated into the soil relative to untreated control; type: functional
Lolium rigidum [18] = assay: Herbicidal activity against Lolium rigidum accession A08 assessed as emergence rate applied at 1 times pre-emergence recommended rate applied in pots where terbufos had been incorporated into the soil relative to untreated control; type: functional
Lolium rigidum [19] = assay: Herbicidal activity against Lolium rigidum accession A14 assessed as emergence rate applied at 1 times pre-emergence recommended rate applied in pots where terbufos had been incorporated into the soil relative to untreated control; type: functional
Lolium rigidum [20] = assay: Herbicidal activity against Lolium rigidum accession A04 assessed as fresh weight reduction applied at 4 times pre-emergence recommended rate relative to untreated control; type: functional; parameters: scale not given: the % may be the effect or the level left
Lolium rigidum [21] = assay: Herbicidal activity against Lolium rigidum accession A02 assessed as fresh weight reduction applied at 4 times pre-emergence recommended rate relative to untreated control; type: functional; parameters: scale not given: the % may be the effect or the level left
Lolium rigidum [22] = assay: Herbicidal activity against Lolium rigidum accession A13 assessed as fresh weight reduction applied at 1 times pre-emergence recommended rate applied in pots where terbufos had been incorporated into the soil relative to untreated control; type: functional; parameters: scale not given: the % may be the effect or the level left
Lolium rigidum [23] = assay: Herbicidal activity against Lolium rigidum accession A12 assessed as fresh weight reduction applied at 1 times pre-emergence recommended rate applied in pots where terbufos had been incorporated into the soil relative to untreated control; type: functional; parameters: scale not given: the % may be the effect or the level left
Lolium rigidum [24] = assay: Herbicidal activity against Lolium rigidum accession A08 assessed as fresh weight reduction applied at 1 times pre-emergence recommended rate applied in pots where terbufos had been incorporated into the soil relative to untreated control; type: functional; parameters: scale not given: the % may be the effect or the level left
Lolium rigidum [25] = assay: Herbicidal activity against Lolium rigidum accession A05 assessed as fresh weight reduction applied at 1 times pre-emergence recommended rate applied in pots where terbufos had been incorporated into the soil relative to untreated control; type: functional; parameters: scale not given: the % may be the effect or the level left
Lolium rigidum [26] = assay: Herbicidal activity against Lolium rigidum accession A04 assessed as fresh weight reduction applied at 1 times pre-emergence recommended rate applied in pots where terbufos had been incorporated into the soil relative to untreated control; type: functional; parameters: scale not given: the % may be the effect or the level left
Lolium rigidum [27] = assay: Herbicidal activity against Lolium rigidum accession A03 assessed as fresh weight reduction applied at 1 times pre-emergence recommended rate applied in pots where terbufos had been incorporated into the soil relative to untreated control; type: functional; parameters: scale not given: the % may be the effect or the level left
Lolium rigidum [28] = assay: Herbicidal activity against Lolium rigidum accession A11 assessed as fresh weight reduction applied at 1 times pre-emergence recommended rate relative to untreated control; type: functional; parameters: scale not given: the % may be the effect or the level left
Lolium rigidum [29] = assay: Herbicidal activity against Lolium rigidum accession A09 assessed as fresh weight reduction applied at 1 times pre-emergence recommended rate relative to untreated control; type: functional; parameters: scale not given: the % may be the effect or the level left
Lolium rigidum [30] = assay: Herbicidal activity against Lolium rigidum accession A06 assessed as fresh weight reduction applied at 1 times pre-emergence recommended rate relative to untreated control; type: functional; parameters: scale not given: the % may be the effect or the level left
Lolium rigidum [31] = assay: Herbicidal activity against Lolium rigidum accession A05 assessed as fresh weight reduction applied at 1 times pre-emergence recommended rate relative to untreated control; type: functional; parameters: scale not given: the % may be the effect or the level left
Lolium rigidum [32] = assay: Herbicidal activity against Lolium rigidum accession A01 assessed as fresh weight reduction applied at 1 times pre-emergence recommended rate relative to untreated control; type: functional; parameters: scale not given: the % may be the effect or the level left
Lolium rigidum [33] = assay: Herbicidal activity against Lolium rigidum accession A15 assessed as fresh weight reduction applied at 1 times pre-emergence recommended rate relative to untreated control; type: functional; parameters: scale not given: the % may be the effect or the level left

COc1nc(C)nc(NC(=O)NS(=O)(=O)c2ccccc2Cl)n1 [CHLORSULFURON]
Activity (Lolium rigidum [1]): 2%
Activity (Lolium rigidum [2]): 84%
Activity (Lolium rigidum [3]): 1%
Ratio [4]: 29
Ratio [5]: 470
Ratio [6]: 61
IC50 (Acetolactate synthase [7]): 1.62 µM
IC50 (Acetolactate synthase [8]): 7.71 µM
Activity (Lolium rigidum [9]): 92%
Activity (Lolium rigidum [10]): 1%
Activity (Lolium rigidum [11]): 2%
Activity (Lolium rigidum [12]): 2%
Activity (Lolium rigidum [13]): 44%
Activity (Lolium rigidum [14]): 89%
IC50 (Acetolactate synthase [15]): 4.89 µM
Activity (Lolium rigidum [16]): 3%
Activity (Lolium rigidum [17]): 3%
Activity (Lolium rigidum [18]): 91%
Activity (Lolium rigidum [19]): 1%
Activity (Lolium rigidum [20]): 95%
Activity (Lolium rigidum [21]): 97%
Activity (Lolium rigidum [22]): 100%
Activity (Lolium rigidum [23]): 100%
Activity (Lolium rigidum [24]): 5%
Activity (Lolium rigidum [25]): 0%
Activity (Lolium rigidum [26]): 96%
Activity (Lolium rigidum [27]): 99%
Activity (Lolium rigidum [28]): 54%
Activity (Lolium rigidum [29]): 78%
Activity (Lolium rigidum [30]): 0%
Activity (Lolium rigidum [31]): 0%
Activity (Lolium rigidum [32]): 98%
Activity (Lolium rigidum [33]): 94%
